Relative activity data for 7 compounds are collected here from ChEMBL document CHEMBL1121807, “Potential thyroliberin affinity labels. 1. Chloroacetyl-substituted phenylalanylpyrrolidines” (1981).

For experiment [1], the species on record is Rattus norvegicus. Put plainly: Agonist activity relative to TRH (Thyroliberin) was evaluated in rat; None at a dose up to 30 ug. Format: functional, organism-based.
For experiment [2], the species on record is Rattus norvegicus. Put plainly: Agonist activity relative to TRH (Thyroliberin) was evaluated in rat. Format: functional.
For experiment [3], the species on record is Rattus norvegicus. As to the kind of experiment: Agonist activity relative to TRH (Thyroliberin) was evaluated in rat; none at a dose up to 30 ug. Format: functional, organism-based.
The species named for experiment [4] is Rattus norvegicus. Put plainly: Agonist activity relative to TRH (Thyroliberin) was evaluated in rat at a dose of 0.6 ng. Format: functional.

Regarding `C[C@H](NC(=O)CCl)C(=O)N[C@@H](Cc1ccccc1)C(=O)N1CCCC1`, in the experiment filed under Rattus norvegicus [1], the Relative activity entry is listed as “None”.
As for `O=C(CCl)NC(Cc1ccccc1)C(=O)N1CCCC1` (configuration not stated), the Relative activity result in the experiment filed under Rattus norvegicus [1] is “None”.
On to `O=C(CCl)c1ccc(C(=O)NC(Cc2ccccc2)C(=O)N2CCCC2)cc1` (configuration not stated), for which the Relative activity in the experiment filed under Rattus norvegicus [2] is 0.0006%.
Regarding `C[C@H](NC(=O)c1cccc(C(=O)CCl)c1)C(=O)N[C@@H](Cc1ccccc1)C(=O)N1CCCC1`, the Relative activity entry in the experiment listed under Rattus norvegicus [3] is reported as “None”.
`NC(=O)[C@@H]1CCCN1C(=O)[C@H](Cc1c[nH]cn1)NC(=O)[C@@H]1CCC(=O)N1` [PROTIRELIN] had a Relative activity in the experiment filed under Rattus norvegicus [4] of 100%.
With `O=C(CCl)c1cccc(C(=O)NC(Cc2ccccc2)C(=O)N2CCCC2)c1` (configuration not stated), the Relative activity in the experiment filed under Rattus norvegicus [2] was determined as 0.0012%.
Same read-out and setting: in the case of `C[C@H](NC(=O)c1ccc(C(=O)CCl)cc1)C(=O)N[C@@H](Cc1ccccc1)C(=O)N1CCCC1` it was 0.005%.
